Results on nine compounds are retold here after US20250034182A1, “PHOSPHOLIPID COMPOUNDS AND METHODS OF MAKING AND USING THE SAME” (priority 2021, published 2025).

What all share (assay type): cell-based
Data set [1] in a line: HCV Replicon 1B CC50, calcein AM (Example Q). To be noted: calcein AM fluorescence, read-out: HCV Replicon 1B CC50 (nM) (per Ex. Q). How it is done: (§1) Compounds were serially diluted in ten steps of 1:3 dilutions in 384-well plates. All serial dilutions were performed in four replicates per compound within the same 384-well plate. An HCV protease inhibitor ITMN-191 at […] was added as a control of 100% inhibition of HCV replication while puromycin at 10 mM was included as a control of 100% cytotoxicity. To each well of a black polystyrene 384-well plate (Greiner Bio-one, Monroe, NC), 90 μL of cell culture medium (without Geneticin) containing 2000 suspended HCV replicon cells was added with a Biotek μFlow workstation. For compound transfer into cell culture plates, 0.4 μL of compound solution from the compound serial dilution plate was transferred to the cell culture plate on a Biomek FX workstation. The DMSO concentration in the final assay wells was 0.44%. The plates were incubated for 3 days at 37° C. with 5% CO2 and 85% humidity. The HCV replicon assay was a multiplex assay, able to assess both cytotoxicity and antireplicon activity from the same well. The CC50 assay was performed first. The media in the 384-well cell culture plate was aspirated, and the wells were washed four times with 100 μL of PBS each, using a Biotek ELX405 plate washer. A volume of 50 μL of a solution containing 400 nM calcein AM (Anaspec, Fremont, CA) in 1×PBS was added to each well of the plate with a Biotek μFlow workstation. The plate was incubated for 30 min at room temperature before the fluorescence signal (excitation 490 nm, emission 520 nm) was measured with a Perkin-Elmer Envision plate reader. The EC50 assay was performed in the same wells as the CC50 assay. The calcein-PBS solution in the 384-well cell culture plate was aspirated with a Biotek ELX405 plate washer. A volume of 20 μL of Dual-Glo luciferase buffer (Promega, Madison, WI) was added to each well of the plate with a Biotek μFlow Workstation. The plate was incubated for 10 min at room temperature. A volume of 20 μL of a solution containing a 1:100 mixture of Dual-Glo Stop & Glo substrate (Promega, Madison, WI) and Dual-Glo Stop & Glo buffer (Promega, Madison, WI) was added to each well of the plate with a Biotek μFlow Workstation. The plate was then incubated at room temperature for 10 min before the luminescence signal was measured with a Perkin-Elmer Envision Plate Reader.

Data set [2] is described as follows: HCV Replicon 2A CC50, calcein AM (Example Q). The note with it: calcein AM fluorescence, read-out: HCV Replicon 2A CC50 (nM) (per Ex. Q). As to the method:
as §1

A further data set concerns HCV Replicon 1B. Briefly: HCV Replicon 1B EC50 (Example Q). To be noted: Hepatitis C virus, 72 h, read-out: HCV Replicon 1B EC50 (nM) (per Ex. Q). How it is done:
as §1
Background: Replicon systems follow genome replication, usually without infectious particles.

Another data set deals with HCV Replicon 2A. The data set is described as follows: HCV Replicon 2A EC50 (Example Q). The note with it: Hepatitis C virus, 72 h, read-out: HCV Replicon 2A EC50 (nM) (per Ex. Q). As to the method:
as §1

Data set [3] can be described thus: in vitro. To be noted: human. How it is done: Huh7 hepatoblastoma cells were seeded onto 96-well plates and incubated at 37° C. with 5% CO2 overnight. The plates were seeded at a cell concentration that will yield >70% confluent monolayers in each well after overnight incubation. Eight 3-fold serial dilutions of compounds were diluted in test media (MEM supplemented with 2% FBS and 50 μg/mL gentamicin). The highest test compound concentration was 50 μg/mL. 100 μL of each concentration was added to 5 test wells on the 96-well plate. Of these 5 test wells, 3 wells of each dilution were infected with dengue virus type 2, diluted in test media (approximately 2000 CCID50 per well for an MOI of 0.07). Test medium (100 μL) with no virus was added to 2 wells to represent the uninfected cytotoxicity controls. Six additional infected wells received 100 μL media alone as untreated virus controls. Further, 100 μL of media alone was added to 6 uninfected wells to serve as uninfected, untreated controls. Cultures were incubated at 37° C.+5% CO2 until >80% CPE is observed. After cytopathic effect (CPE) is observed microscopically, 0.011% neutral red dye was added for approximately 2 hours. The neutral red dye was removed and wells were rinsed once with PBS to remove residual, unincorporated dye. A 50:50 Sorensen citrate buffer/ethanol solution was added and incubated at room temperature for >30 minutes with agitation, followed by measurement of neutral red dye using a spectrophotometer at 540 nm. The resulting optical density measurement was converted to percent signal of the infected, untreated cell control normalizing to virus controls. EC50 and CC50 values were determined by linear regression analysis.

Data set [4] in a line: in vitro. The note with it: human. How it is done:
H1-HeLa cell viability was measured using the CellTiter-Glo® Luminescent Cell Viability Assay kit (Promega, Cat #G7573) according to the manufacturer's protocol. H1-HeLa cells were maintained in Dulbecco's Modified Eagle's Medium with high glucose (Gibco, Cat #: 11995073) supplemented with 10% FBS (HyClone, Cat #: SH303396.03), 100 units/mL penicillin and 100 µg/mL streptomycin (Gibco, Cat #: 15140122). One day before compound treatment, H1-HeLa cells were seeded at […] into 96-well plates (Corning, Cat #3904) in Opti-MEM (Gibco, Cat #: 31985070) supplemented with 2% FBS, and were incubated at 37° C. in a 100% humid atmosphere containing 5% (v/v) CO2. After overnight incubation, the cells were treated with three-fold serial dilutions of the compound. At 96 hours post treatment, CellTiter-Glo reagents were added into each well and luminescence signals were recorded by an EnVision plate reader. The relative cell viability was calculated by normalizing the absorbance of the compound-treated groups to that of the DMSO-treated groups (set as 100% viability) and 10 μM puromycin treated groups (set as 0% viability). The CC50 (compound concentration for reducing 50% of cell viability) was calculated using a nonlinear regression model (four parameters).
The source holds these as a separate data set.

[5] abbreviates: HCV replicon cells, 3 days, Dual-Glo luciferase.

Like-named read-outs stand apart in the source and are kept apart here. Some results are limits rather than exact numbers.

For orientation: CC50 means the concentration that lowers cell viability or growth by half. What is called EC50 is the midpoint of the concentration-response curve. In the case of `CCCCCCCCCCCCCCCCCCOC[C@H](COP(=O)(O)OC[C@@]1(C#N)O[C@@H](c2ccc3c(N)ncnn23)[C@H](O)[C@@H]1O)Oc1cccc(C#N)n1` [Compound 21, ((2R,3S,4R,5S)-5-(4-aminopyrrolo[2,1-f][1,2,4]triazin-7-yl)-2-cyano-3,4-dihydroxytetrahydrofuran-2-yl)methyl ((R)-2-((6-cyanopyridin-2-yl)oxy)-3-(octadecyloxy)propyl) hydrogen phosphate], the CC50 at 3 days in data set [1] (HCV replicon cells (1B)) and in data set [2] (HCV replicon cells (2A)) was above 44400 nM each time. The EC50 in the data set with HCV Replicon 1B (setting [5]) came to 13300 nM; with HCV Replicon 2A (setting [5]) it was 19200 nM.
As for `CCCCCCCCCCCCCCCCCC[C@@H](COP(=O)(O)OC[C@@]1(C#N)O[C@@H](c2ccc3c(N)ncnn23)[C@H](O)[C@@H]1O)OCc1cc(F)cc(C#N)c1` [Compound 37, ((2R,3S,4R)-5-(4-aminopyrrolo[2,1-f][1,2,4]triazin-7-yl)-2-cyano-3,4-dihydroxytetrahydrofuran-2-yl)methyl ((S)-2-((3-cyano-5-fluorobenzyl)oxy)icosyl) hydrogen phosphate], the CC50 at 3 days in data set [1] (HCV replicon cells (1B)) and in data set [2] (HCV replicon cells (2A)) was above 44400 nM each time. For the same compound, the EC50 came to 22500 nM in the data set with HCV Replicon 1B (setting [5]) and 26000 nM in the data set with HCV Replicon 2A (setting [5]). In “in vitro [3]”, this compound displayed a cytotoxic concentration (CC50) of 16 µM.
As to `CCCCCCCCCCCCCCCCCCCC[C@H](COP(=O)(O)OC[C@@]1(C#N)O[C@@H](c2ccc3c(N)ncnn23)[C@H](O)[C@@H]1O)Oc1cccc(C#N)c1` [Compound 51, ((2R,3S,4R,5S)-5-(4-aminopyrrolo[2,1-f][1,2,4]triazin-7-yl)-2-cyano-3,4-dihydroxytetrahydrofuran-2-yl)methyl ((R)-2-(3-cyanophenoxy)docosyl) hydrogen phosphate], the CC50 at 3 days in data set [1] (HCV replicon cells (1B)) and in data set [2] (HCV replicon cells (2A)) was above 44400 nM in each case. The concentration giving a half-maximal response (EC50) with HCV Replicon 1B (setting [5]) turned out to be 14600 nM; in the data set on HCV Replicon 2A (setting [5]), 19200 nM. The same compound had a CC50 in “in vitro [3]” of 21 µM.
Consider `CCCCCCCCCCCCCCCCCOC[C@H](COP(=O)(O)OC[C@@]1(C#N)O[C@@H](c2ccc3c(N)ncnn23)[C@H](O)[C@@H]1O)OCc1cc(F)cc(C#N)c1` [Compound 53, ((2R,3S,4R,5S)-5-(4-aminopyrrolo[2,1-f][1,2,4]triazin-7-yl)-2-cyano-3,4-dihydroxytetrahydrofuran-2-yl)methyl ((R)-2-((3-cyano-5-fluorobenzyl)oxy)-3-(heptadecyloxy)propyl) hydrogen phosphate], for which the half-maximal cytotoxic concentration (CC50) at 3 days is above 44400 nM in data set [1] (HCV replicon cells (1B)) and 36200 nM in data set [2] (HCV replicon cells (2A)). The concentration for a half-maximal effect (EC50) in the data set with HCV Replicon 1B (setting [5]) and in the data set with HCV Replicon 2A (setting [5]) was 15500 nM in each case. This compound also returned a half-maximal cytotoxic concentration (CC50) in the data set “in vitro [3]” of 16 µM.
For the compound `CCCCCCCCCCCCCCCCCCOC[C@H](COP(=O)(O)OC[C@@]1(C#N)O[C@@H](c2ccc3c(N)ncnn23)[C@H](O)[C@@H]1O)OCc1cccc(C#N)n1` [Compound 68, ((2R,3S,4R)-5-(4-aminopyrrolo[2,1-f][1,2,4]triazin-7-yl)-2-cyano-3,4-dihydroxytetrahydrofuran-2-yl)methyl ((R)-2-((6-cyanopyridin-2-yl)methoxy)-3-(octadecyloxy)propyl) hydrogen phosphate], the cytotoxic concentration (CC50) at 3 days in data set [1] (HCV replicon cells) and in data set [2] (HCV replicon cells) was above 44400 nM in each case. For the same compound, the figures for the EC50 with HCV Replicon 1B and in the data set on HCV Replicon 2A were 11500 nM and 15200 nM, respectively. Moreover, in the data set “in vitro [4]”, the CC50 at 96 h is 8.71 µM.
Consider `CCCCCCCCCCCCCCCCCCCC[C@@H](COP(=O)(O)OC[C@@]1(C#N)O[C@@H](c2ccc3c(N)ncnn23)[C@H](O)[C@@H]1O)OCc1cc(F)cc(C#N)c1` [Compound 70, ((2R,3S,4R)-5-(4-aminopyrrolo[2,1-f][1,2,4]triazin-7-yl)-2-cyano-3,4-dihydroxytetrahydrofuran-2-yl)methyl ((S)-2-((3-cyano-5-fluorobenzyl)oxy)docosyl) hydrogen phosphate], for which the results for the cytotoxic concentration (CC50) at 3 days in data set [1] (HCV replicon cells) and in data set [2] (HCV replicon cells) were above 44400 nM and 42700 nM, respectively. Besides, the half-maximal effective concentration (EC50) amounted to 19600 nM with HCV Replicon 1B and 25200 nM in the data set with HCV Replicon 2A. The same compound had a CC50 in “in vitro [3]” of 12 µM.
Consider `CCCCCCCCCCCCCCCCCCOC[C@H](COP(=O)(O)OC[C@@]1(C#N)O[C@@H](c2ccc3c(N)ncnn23)[C@H](O)[C@@H]1O)OCc1ccc(C#N)cc1OC` [Compound 73, ((2R,3S,4R)-5-(4-aminopyrrolo[2,1-f][1,2,4]triazin-7-yl)-2-cyano-3,4-dihydroxytetrahydrofuran-2-yl)methyl ((R)-2-((4-cyano-2-methoxybenzyl)oxy)-3-(octadecyloxy)propyl) hydrogen phosphate], for which the CC50 at 3 days in data set [1] (HCV replicon cells (1B)) and in data set [2] (HCV replicon cells (2A)) was above 44400 nM each time. In addition, the figures for the concentration for a half-maximal effect (EC50) in the data set on HCV Replicon 1B (setting [5]) and in the data set on HCV Replicon 2A (setting [5]) were 15900 nM and 20400 nM, respectively. The same compound returned a cytotoxic concentration (CC50) in the data set “in vitro [3]” of 19 µM.
For `CCCCCCCCCCCCCCCCC[C@@H](COP(=O)(O)OC[C@@]1(C#N)O[C@@H](c2ccc3c(N)ncnn23)[C@H](O)[C@@H]1O)OCc1cc(F)cc(C#N)c1` [Compound 74, ((2R,3S,4R)-5-(4-aminopyrrolo[2,1-f][1,2,4]triazin-7-yl)-2-cyano-3,4-dihydroxytetrahydrofuran-2-yl)methyl ((S)-2-((3-cyano-5-fluorobenzyl)oxy)nonadecyl) hydrogen phosphate], the half-maximal cytotoxic concentration (CC50) at 3 days was above 44400 nM in data set [1] (HCV replicon cells) and 35800 nM in data set [2] (HCV replicon cells). Further, the EC50 in the data set with HCV Replicon 1B amounted to 26200 nM; in the data set with HCV Replicon 2A, 22800 nM. Further, in “in vitro [3]”, the CC50 amounted to 15 µM.
As for `CCCCCCCCCCCCCCCC[C@H](COP(=O)(O)OC[C@@]1(C#N)O[C@@H](c2ccc3c(N)ncnn23)[C@H](O)[C@@H]1O)OCc1cc(F)cc(C#N)c1` [Compound 78, ((2R,3S,4R,5S)-5-(4-aminopyrrolo[2,1-f][1,2,4]triazin-7-yl)-2-cyano-3,4-dihydroxytetrahydrofuran-2-yl)methyl ((R)-2-((3-cyano-5-fluorobenzyl)oxy)octadecyl) hydrogen phosphate], the 50% cytotoxic concentration (CC50) at 3 days is above 44400 nM in data set [1] (HCV replicon cells (1B)) and 33800 nM in data set [2] (HCV replicon cells (2A)). Besides, the half-maximal effective concentration (EC50) was found to be 27600 nM in the data set with HCV Replicon 1B (setting [5]) and 18400 nM in the data set on HCV Replicon 2A (setting [5]).
